Data reported in the supplement of paper PMC5579334.

Legend:
YST-1 [1] = experiment: drug sensitivity score (DSS, CellTiter-Glo viability, 72 h) (DSS (dimensionless)); higher = more sensitive; extreme values may be limits of the assay
Method in brief: (§1)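 For this screen, 384-well plates were preprinted with each compound at five concentrations in 10-fold steps and seeded with MPNST cell lines or primary human Schwann cells at 750–1000 cells per well. Incubation lasted 72 h at 37 °C, 5% CO2, and CellTiter-Glo ATP luminescence, scaled between vehicle and positive-control wells and averaged over duplicates where available, served as viability. Logistic fits with four parameters were applied. Relative IC50 (censored at the top concentration) and drug sensitivity score derive from these fits, and percent inhibition is at the top concentration.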

HS-Sch-2 [2] = experiment: as above
Method in brief: as §1

HS-PSS [3] = experiment: as above
Method in brief: as §1

HS-PSS [4] = experiment: drug sensitivity score (DSS, CellTox-Green cytotoxicity, 72 h) (DSS (dimensionless)); higher = more cytotoxic; extreme values may be limits of the assay
Method in brief: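 MPNST cell lines and primary human Schwann cells were grown for 72 h at 37 °C in 384-well plates containing five 10-fold compound dilutions. CellTox-Green, added before seeding at a final 1:1000 dilution, gave fluorescence from DNA released by disrupted cells, and signals were scaled to vehicle and positive-control wells. Curves were fitted with a four-parameter logistic model. Drug sensitivity score and relative IC50 come from these fits, with IC50 censored at the top concentration.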

YST-1 [5] = experiment: % inhibition of CellTiter-Glo viability at highest tested concentration (72 h), relative to DMSO and benzethonium chloride controls; higher = more inhibition
Method in brief: as §1

HS-Sch-2 [6] = experiment: as above
Method in brief: as §1

HS-PSS [7] = experiment: as above
Method in brief: as §1

CC[C@H](C)C(=O)O[C@H]1C[C@H](O)C=C2C=C[C@H](C)[C@H](CC[C@@H](O)C[C@@H](O)CC(=O)O)[C@H]21 [Pravastatin] (max concentration tested 10000 nM)
drug sensitivity score (YST-1 [1]): 0
drug sensitivity score (HS-Sch-2 [2]): 0
drug sensitivity score (HS-PSS [3]): 1.44
drug sensitivity score (HS-PSS [4]): 0
% inhibition (YST-1 [5]): 0.31%
% inhibition (HS-Sch-2 [6]): -3.68%
% inhibition (HS-PSS [7]): 24.1%

COc1ccc(C[C@H](NC(=O)[C@H](C)NC(=O)CN2CCOCC2)C(=O)N[C@@H](Cc2ccccc2)C(=O)[C@@]2(C)CO2)cc1 [ONX-0914] (max concentration tested 10000 nM)
drug sensitivity score (YST-1 [1]): 18.1
drug sensitivity score (HS-Sch-2 [2]): 21.7
drug sensitivity score (HS-PSS [3]): 17.6
drug sensitivity score (HS-PSS [4]): 17.5
% inhibition (YST-1 [5]): 101%
% inhibition (HS-Sch-2 [6]): 101%
% inhibition (HS-PSS [7]): 100%

COc1cc(Br)c(Nc2nc(-c3c(C)nc4ncccn34)cs2)c(Br)c1 [PTC-209] (max concentration tested 10000 nM)
drug sensitivity score (YST-1 [1]): 6.29
drug sensitivity score (HS-Sch-2 [2]): 7.96
drug sensitivity score (HS-PSS [3]): 7.63
drug sensitivity score (HS-PSS [4]): 0
% inhibition (YST-1 [5]): 94.4%
% inhibition (HS-Sch-2 [6]): 81%
% inhibition (HS-PSS [7]): 84.8%

Cn1cc(C2=Nc3cc(NC(=O)C(N)C4CCCCC4)cc4c3C2=CNNC4=O)cn1 (centres undefined) (max concentration tested 10000 nM)
drug sensitivity score (YST-1 [1]): 14.8
drug sensitivity score (HS-Sch-2 [2]): 22.7
drug sensitivity score (HS-PSS [3]): 8.91
drug sensitivity score (HS-PSS [4]): 0
% inhibition (YST-1 [5]): 51.3%
% inhibition (HS-Sch-2 [6]): 84.3%
% inhibition (HS-PSS [7]): 43.5%

CN1CCC(CNc2ccc3ncc(-c4cccc(OC(F)(F)F)c4)n3n2)CC1 [SGI-1776] (max concentration tested 10000 nM)
drug sensitivity score (YST-1 [1]): 9
drug sensitivity score (HS-Sch-2 [2]): 7.09
drug sensitivity score (HS-PSS [3]): 6.88
drug sensitivity score (HS-PSS [4]): 6.8
% inhibition (YST-1 [5]): 101%
% inhibition (HS-Sch-2 [6]): 101%
% inhibition (HS-PSS [7]): 101%

C=CC(=O)Nc1cc(Nc2nccc(-c3cn(C)c4ccccc34)n2)c(OC)cc1N(C)CCN(C)C [Osimertinib] (max concentration tested 2500 nM)
drug sensitivity score (YST-1 [1]): 6.9
drug sensitivity score (HS-Sch-2 [2]): 4.21
drug sensitivity score (HS-PSS [3]): 5.5
drug sensitivity score (HS-PSS [4]): 0.95
% inhibition (YST-1 [5]): 63.7%
% inhibition (HS-Sch-2 [6]): 73.2%
% inhibition (HS-PSS [7]): 66.3%

COCC1(CO)C(=O)C2CCN1CC2 (centres undefined) [APR-246] (max concentration tested 10000 nM)
drug sensitivity score (YST-1 [1]): 0
drug sensitivity score (HS-Sch-2 [2]): 0
drug sensitivity score (HS-PSS [3]): 0.39
drug sensitivity score (HS-PSS [4]): 0
% inhibition (YST-1 [5]): -11%
% inhibition (HS-Sch-2 [6]): 5%
% inhibition (HS-PSS [7]): 13.1%

Cn1cnc2c(F)c(Nc3ccc(Br)cc3F)c(C(=O)NOCCO)cc21 [Binimetinib] (max concentration tested 1000 nM)
drug sensitivity score (YST-1 [1]): 0
drug sensitivity score (HS-Sch-2 [2]): 0.81
drug sensitivity score (HS-PSS [3]): 0
drug sensitivity score (HS-PSS [4]): 0
% inhibition (YST-1 [5]): 6.26%
% inhibition (HS-Sch-2 [6]): 21.1%
% inhibition (HS-PSS [7]): 7.79%

CO[C@H]1C(=O)[C@]2(C)[C@@H](OC)C[C@H]3OC[C@@]3(OC(C)=O)[C@H]2[C@H](OC(=O)c2ccccc2)[C@]2(O)C[C@H](OC(=O)[C@H](O)[C@@H](NC(=O)OC(C)(C)C)c3ccccc3)C(C)=C1C2(C)C [Cabazitaxel] (max concentration tested 1000 nM)
drug sensitivity score (YST-1 [1]): 30.7
drug sensitivity score (HS-Sch-2 [2]): 33.6
drug sensitivity score (HS-PSS [3]): 1.5
drug sensitivity score (HS-PSS [4]): 0.1
% inhibition (YST-1 [5]): 74%
% inhibition (HS-Sch-2 [6]): 93.5%
% inhibition (HS-PSS [7]): 41.5%

CCn1nnc2c(N3CCOCC3)nc(-c3ccc(NC(=O)Nc4ccc(C(=O)N5CCN(C)CC5)cc4)cc3)nc21 [PKI-402] (max concentration tested 2500 nM)
drug sensitivity score (YST-1 [1]): 17.3
drug sensitivity score (HS-Sch-2 [2]): 12.4
drug sensitivity score (HS-PSS [3]): 15.3
drug sensitivity score (HS-PSS [4]): 0.89
% inhibition (YST-1 [5]): 90.9%
% inhibition (HS-Sch-2 [6]): 75.5%
% inhibition (HS-PSS [7]): 75.8%

CN(C[C@@H]1COCCO1)S(=O)(=O)Nc1ccc2ccc3ncc(-c4cnn(C)c4)cc3c(=O)c2c1 [MK-2461] (max concentration tested 10000 nM)
drug sensitivity score (YST-1 [1]): 6.02
drug sensitivity score (HS-Sch-2 [2]): 2.68
drug sensitivity score (HS-PSS [3]): 0.69
drug sensitivity score (HS-PSS [4]): 0
% inhibition (YST-1 [5]): 67.3%
% inhibition (HS-Sch-2 [6]): 55.1%
% inhibition (HS-PSS [7]): 25.5%

Cn1cc(-c2ccc3nnc(C(F)(F)c4ccc5ncccc5c4)n3n2)cn1 (max concentration tested 10000 nM)
drug sensitivity score (YST-1 [1]): 0.54
drug sensitivity score (HS-Sch-2 [2]): 0.05
drug sensitivity score (HS-PSS [3]): 1.21
drug sensitivity score (HS-PSS [4]): 0
% inhibition (YST-1 [5]): 18.4%
% inhibition (HS-Sch-2 [6]): 11.5%
% inhibition (HS-PSS [7]): 17.4%

COc1ccc(Cl)c(Nc2nc3ccccc3nc2NS(=O)(=O)c2cccc(NC(=O)C(C)(C)N)c2)c1 [Pilaralisib] (max concentration tested 2500 nM)
drug sensitivity score (YST-1 [1]): 2.53
drug sensitivity score (HS-Sch-2 [2]): 0.34
drug sensitivity score (HS-PSS [3]): 0
drug sensitivity score (HS-PSS [4]): 0
% inhibition (YST-1 [5]): 42.6%
% inhibition (HS-Sch-2 [6]): 14.3%
% inhibition (HS-PSS [7]): 7.45%

CCn1cc(-c2ccnc3[nH]c(-c4cccc(CN(C)C)c4)cc23)c(-c2ccc(NC(=O)N(C)C)cc2)n1 (max concentration tested 1000 nM)
drug sensitivity score (YST-1 [1]): 10.8
drug sensitivity score (HS-Sch-2 [2]): 4.77
drug sensitivity score (HS-PSS [3]): 4.28
drug sensitivity score (HS-PSS [4]): 0
% inhibition (YST-1 [5]): 33.4%
% inhibition (HS-Sch-2 [6]): 54%
% inhibition (HS-PSS [7]): 46.2%

Cn1nnc2c(C(N)=O)ncn2c1=O [Temozolomide] (max concentration tested 100000 nM)
drug sensitivity score (YST-1 [1]): 0.08
drug sensitivity score (HS-Sch-2 [2]): 1.67
drug sensitivity score (HS-PSS [3]): 0
drug sensitivity score (HS-PSS [4]): 0
% inhibition (YST-1 [5]): 11.6%
% inhibition (HS-Sch-2 [6]): 20.4%
% inhibition (HS-PSS [7]): 8.55%

O=C(c1ccc(/C=C/c2n[nH]c3ccccc23)cc1)N1CCNCC1 [KW-2449] (max concentration tested 2500 nM)
drug sensitivity score (YST-1 [1]): 2.08
drug sensitivity score (HS-Sch-2 [2]): 0
drug sensitivity score (HS-PSS [3]): 0
drug sensitivity score (HS-PSS [4]): 0
% inhibition (YST-1 [5]): 30.9%
% inhibition (HS-Sch-2 [6]): 0.48%
% inhibition (HS-PSS [7]): 10.1%

Cc1ccc(NC(=O)c2ccc(CN3CC[C@H](N(C)C)C3)c(C(F)(F)F)c2)cc1Nc1nccc(-c2cncnc2)n1 [Bafetinib] (max concentration tested 1000 nM)
drug sensitivity score (YST-1 [1]): 1.49
drug sensitivity score (HS-Sch-2 [2]): 0.33
drug sensitivity score (HS-PSS [3]): 0
drug sensitivity score (HS-PSS [4]): 0
% inhibition (YST-1 [5]): 28.5%
% inhibition (HS-Sch-2 [6]): 16.8%
% inhibition (HS-PSS [7]): -10.6%
